Measurements taken from PMC6662551 (Clinical and Translational Science, 2019).
“And” between values parts separate entries of the source, which are not always exact repeats. Equal values may be shown once. Read-outs that look alike come from different tables or passages of the source.

What was measured:
OATP1B1 [1] = settings: c.521T>C carriers; cited from earlier work
[2] = assay type: in vivo, human; settings: for AUClast: 0.25-12 hour; for C0: plasma
OATP1B1 [3] = assay type: in vivo, human; settings: human, plasma, oral; for AUC(0-t): AUClast, 0.25-12 hour; for C0: C0, plasma, baseline
[4] = pravastatin + cyclosporine, CC (N = 2)
[5] = pravastatin + cyclosporine, TC (N = 6)
[6] = pravastatin + cyclosporine, TT (N = 8)
[7] = pravastatin + cyclosporine, all genotype (N = 16)
[8] = pravastatin + placebo, CC (N = 2)
[9] = pravastatin + placebo, TC (N = 6)
[10] = pravastatin + placebo, TT (N = 8)
[11] = 12 hours after first CsA dose, pravastatin + cyclosporine, all genotype
[12] = baseline, pravastatin + placebo, all genotype
[13] = pravastatin + cyclosporine (N = 16)
[14] = pravastatin + placebo, all genotype (N = 16)

AUClast [2, 7] | AUClast [2, 10] [nM·h] | AUClast fold increase, pravastatin plus CsA over pravastatin plus placebo ([2]; CC (N = 2)) [fold] | Cavg fold increase, pravastatin plus CsA over pravastatin plus placebo ([2]; CC (N = 2)) [fold] | AUClast fold increase, pravastatin plus CsA over pravastatin plus placebo ([2]; TC (N = 6)) [fold] | Cavg fold increase, pravastatin plus CsA over pravastatin plus placebo ([2]; TC (N = 6)) [fold] | AUClast fold increase, pravastatin plus CsA over pravastatin plus placebo ([2]; TT (N = 8)) [fold] | Cavg fold increase, pravastatin plus CsA over pravastatin plus placebo ([2]; TT (N = 8)) [fold] | AUClast fold increase, pravastatin plus CsA over pravastatin plus placebo ([2]; all genotype) | Cavg fold increase, pravastatin plus CsA over pravastatin plus placebo ([2]; all genotype) [fold] | Cmax fold increase, pravastatin plus CsA over pravastatin plus placebo ([2]; all genotype (N = 16)) [fold] | C0 [2, 11] | C0 [2, 12] | Cmax [2, 13] [nM] | Cavg [2, 4] [nM] | Cavg [2, 5] [nM] | Cavg [2, 6] [nM] | Cavg [2, 7] [nM] | Cmax ([2]; pravastatin + placebo (N = 16)) [nM] | Compound | increase in plasma levels in individuals with the OATP1B1‐Val174Ala variant (OATP1B1 [1]) | also measured
– | – | – | – | – | – | – | – | – | – | – | – | – | – | – | – | – | – | – | CCOc1cc(CC(=O)N[C@@H](CC(C)C)c2ccccc2N2CCCCC2)ccc1C(=O)O [repaglinide] | 1.5–3 fold | –
1.68 ± 0.44 nM·h | 1.2 ± 0.17 | 1.2 | 1.3 | 3.0 | 1.7 | 1.3 | 1.4 | 1.9 fold and 1.68 ± 0.44 (1.9) fold | 1.5 | 1.7 | BLOQ in most samples | BLOQ in most samples | 0.24 ± 0.05 | 0.21 ± 0.008 | 0.18 ± 0.02 | 0.15 ± 0.03 | 0.17 ± 0.03 | 0.15 ± 0.039 | coproporphyrin III [CP‐III] | – | AUClast [2, 4]: 2.22 ± 0.13 nM·h; AUClast [2, 5]: 1.65 ± 0.60 nM·h; AUClast [2, 6]: 1.56 ± 0.24 nM·h; AUClast [2, 8]: 1.7 ± 0.013 nM·h; AUClast [2, 9]: 1.0 ± 0.68 nM·h; baseline (C0) level ([2]; 16 samples): below the levels of quantification for 12 of 16 samples; Cavg [2, 8]: 0.15 ± 0.004 nM; Cavg [2, 9]: 0.11 ± 0.03 nM; Cavg [2, 10]: 0.11 ± 0.02 nM
– | – | – | – | – | – | – | – | – | – | – | – | – | – | – | – | – | – | – | CC(C)c1nc(N(C)S(C)(=O)=O)nc(-c2ccc(F)cc2)c1/C=C/[C@@H](O)C[C@@H](O)CC(=O)O [rosuvastatin] | 1.5–3 fold | –
1,070 ± 357 nM·hour | 557 ± 161 | 1.2 | 1.2 | 1.7 | 2.0 | 2.0 | 2.2 | 1.8 fold | 2.0 | 2.1 | 84 ± 33 nM | 60.1 ± 37 nM | 155 ± 55.1 | 149 ± 5.0 | 86.9 ± 33.0 | 98.5 ± 27.8 | 100 ± 33.3 | 90.6 ± 77.3 | O=C(O)CCCCCCCCCCCCCCC(=O)O [HDA, hexadecanedioic acid] | – | AUClast [2, 14]: 649 ± 346 nM·h; C0 fold increase, pravastatin plus CsA over pravastatin plus placebo ([2]; CC): 1.0 fold; C0 fold increase, pravastatin plus CsA over pravastatin plus placebo ([2]; TC): 1.6 fold; C0 fold increase, pravastatin plus CsA over pravastatin plus placebo ([2]; TT): 1.7 fold; ratio of mean AUC in SLCO1B1 c.521‐CC to c.521TT ([2]; endogenous biomarker): 2.6 fold; Cavg [2, 8]: 135 ± 46.6 nM; Cavg [2, 9]: 44.0 ± 11.5 nM; Cavg [2, 10]: 46.1 ± 14.3 nM; Cavg [2, 14]: 56.4 ± 35.1 nM and 56.4 ± 35.1****^, ^b nM; increase in plasma concentration, Cmax over baseline ([2]; pravastatin plus placebo, individuals homozygous c.521‐CC): at least twofold; time of peak plasma level ([2]; two individuals c.521‐CC): around 3 hours and 3.0 hours; AUC(0-t) (OATP1B1 [3]; [4]): 1.68 µM·h; AUC(0-t) (OATP1B1 [3]; [5]): 0.853 ± 0.303 µM·h; AUC(0-t) (OATP1B1 [3]; [6]): 1.07 µM·h; AUC(0-t) (OATP1B1 [3]; [8]): 1.45 µM·h; AUC(0-t) (OATP1B1 [3]; [9]): 0.506 ± 0.116 µM·h; C0 (OATP1B1 [3]; pravastatin + placebo, CC): 114 ± 47.5 nM; C0 (OATP1B1 [3]; pravastatin + placebo, TC): 43.1 ± 13.4 nM; C0 (OATP1B1 [3]; pravastatin + placebo, TT): 52 ± 29.6 nM
